Measured values from PubChem BioAssay AID1963966 (Molecular Pharmacology Branch, DTP, NCI, 2024).

Test system: 935938-334-R-J1-PDC spheroids with HUVEC/MSC, viability
Assay: Anticancer human tumor 935938-334-R-J1-PDC patient-derived small intestine adenocarcinoma cell line growth inhibition [PI3K]
Conditions: for IC50: curve of first compound; for viability, T/C: stronger effect = lower value
Procedure, shortened: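 Multi-cell spheroids combine tumor cells with HUVEC and human MSCs, treated with targeted agents alone or with inavolisib, alpelisib, duvelisib or copanlisib. Concentrations fall in half-log steps from at or near clinical Cmax, or from 10 microM where Cmax is unknown; viability read-out.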

[1] = second compound 0.0316 µM, first compound 0.0316 µM
[2] = second compound 0.0316 µM, first compound 0.1 µM
[3] = second compound 0.0316 µM, first compound 0.316 µM
[4] = second compound 0.0316 µM, first compound 1 µM
[5] = second compound 0.0316 µM, first compound 3.16 µM
[6] = second compound 0.0316 µM, first compound 10 µM
[7] = second compound 0.1 µM, first compound 0.0316 µM
[8] = second compound 0.1 µM, first compound 0.1 µM
[9] = second compound 0.1 µM, first compound 0.316 µM
[10] = second compound 0.1 µM, first compound 1 µM
[11] = second compound 0.1 µM, first compound 3.16 µM
[12] = second compound 0.1 µM, first compound 10 µM
[13] = second compound 0.316 µM, first compound 0.0316 µM
[14] = second compound 0.316 µM, first compound 0.1 µM
[15] = second compound 0.316 µM, first compound 0.316 µM
[16] = second compound 0.316 µM, first compound 1 µM
[17] = second compound 0.316 µM, first compound 3.16 µM
[18] = second compound 0.316 µM, first compound 10 µM
[19] = second compound 1 µM, first compound 0.0316 µM
[20] = second compound 1 µM, first compound 0.1 µM
[21] = second compound 1 µM, first compound 0.316 µM
[22] = second compound 1 µM, first compound 1 µM
[23] = second compound 1 µM, first compound 3.16 µM
[24] = second compound 1 µM, first compound 10 µM
[25] = second compound 3.16 µM, first compound 0.0316 µM
[26] = second compound 3.16 µM, first compound 0.1 µM
[27] = second compound 3.16 µM, first compound 0.316 µM
[28] = second compound 3.16 µM, first compound 1 µM
[29] = second compound 3.16 µM, first compound 3.16 µM
[30] = second compound 3.16 µM, first compound 10 µM
[31] = second compound 10 µM, first compound 0.0316 µM
[32] = second compound 10 µM, first compound 0.1 µM
[33] = second compound 10 µM, first compound 0.316 µM
[34] = second compound 10 µM, first compound 1 µM
[35] = second compound 10 µM, first compound 3.16 µM
[36] = second compound 10 µM, first compound 10 µM
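Note: compound exposure lasted seven days before viability was read.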
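Throughout, for viability, T/C: percent of vehicle DMSO treated spheroid viability so 100% = untreated.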

CC(C)NCC(C(=O)N1CCN(c2ncnc3c2C(C)CC3O)CC1)c1ccc(Cl)cc1 (centres undefined) + CC(Nc1ncnc2nc[nH]c12)c1cc2cccc(Cl)c2c(=O)n1-c1ccccc1 gave an IC50 (second compound 0.0316 µM) of 7260 nM, an IC50 (second compound 0.1 µM) of 3420 nM and an IC50 (second compound 0.316 µM) of 6420 nM. The IC50 (second compound 1 µM) was 1780 nM, the IC50 (second compound 3.16 µM) was 2560 nM and the IC50 (second compound 10 µM) was 1900 nM. It also gave a viability, T/C [1] of 75.5%, a viability, T/C [2] of 80% and a viability, T/C [3] of 72.4%. For the same molecule, the viability, T/C [4] was 64%, the viability, T/C [5] was 78.6% and the viability, T/C [6] was 40.6%. For the same molecule, the viability, T/C [7] was 91.7%, the viability, T/C [8] was 69.4% and the viability, T/C [9] was 79.6%. The viability, T/C [10] was 60.5%, the viability, T/C [11] was 55.1% and the viability, T/C [12] was 34.1%. For the same molecule, the viability, T/C [13] was 93.1%, the viability, T/C [14] was 93% and the viability, T/C [15] was 60.6%. It also gave a viability, T/C [16] of 58%, a viability, T/C [17] of 65.8% and a viability, T/C [18] of 42.3%. It also gave a viability, T/C [19] of 100%, a viability, T/C [20] of 87.3% and a viability, T/C [21] of 59.5%. It also gave a viability, T/C [22] of 67.2%, a viability, T/C [23] of 40.5% and a viability, T/C [24] of 31.4%. For the same molecule, the viability, T/C [25] was 64.6%, the viability, T/C [26] was 78.1% and the viability, T/C [27] was 70%. It also gave a viability, T/C [28] of 64.1%, a viability, T/C [29] of 44.1% and a viability, T/C [30] of 49.6%. For the same molecule, the viability, T/C [31] was 69.5%, the viability, T/C [32] was 59.8% and the viability, T/C [33] was 65.5%. For the same molecule, the viability, T/C [34] was 62%, the viability, T/C [35] was 40.1% and the viability, T/C [36] was 40.8%.
Work on C#Cc1c(F)ccc2cc(O)cc(-c3ncc4c(N5CC6CCC(C5)N6)nc(OCC56CCCN5CC(F)C6)nc4c3F)c12 (centres undefined) + Cc1nc(NC(=O)N2CCCC2C(N)=O)sc1-c1ccnc(C(C)(C)C(F)(F)F)c1 yielded an IC50 (second compound 0.0316 µM) of 987 nM, an IC50 (second compound 0.1 µM) of 1870 nM and an IC50 (second compound 0.316 µM) of 1490 nM. The IC50 (second compound 1 µM) was 528 nM, the IC50 (second compound 3.16 µM) was 48.9 nM and the IC50 (second compound 10 µM) was < 31.6 nM. For the same molecule, the viability, T/C [1] was 101%, the viability, T/C [2] was 89.2% and the viability, T/C [3] was 107%. It also gave a viability, T/C [4] of 49.4%, a viability, T/C [5] of 36.8% and a viability, T/C [6] of 32.7%. The viability, T/C [7] was 88.8%, the viability, T/C [8] was 73.6% and the viability, T/C [9] was 79%. For the same molecule, the viability, T/C [10] was 60%, the viability, T/C [11] was 40.7% and the viability, T/C [12] was 27.6%. It also gave a viability, T/C [13] of 94.4%, a viability, T/C [14] of 80% and a viability, T/C [15] of 77.3%. For the same molecule, the viability, T/C [16] was 59.5%, the viability, T/C [17] was 33.4% and the viability, T/C [18] was 29.4%. The viability, T/C [19] was 76.5%, the viability, T/C [20] was 85.9% and the viability, T/C [21] was 60.4%. It also gave a viability, T/C [22] of 35.4%, a viability, T/C [23] of 29.3% and a viability, T/C [24] of 21.1%. It also gave a viability, T/C [25] of 51.5%, a viability, T/C [26] of 46.5% and a viability, T/C [27] of 40.7%. For the same molecule, the viability, T/C [28] was 30.8%, the viability, T/C [29] was 25.7% and the viability, T/C [30] was 23.4%. The viability, T/C [31] was 47.8%, the viability, T/C [32] was 33.2% and the viability, T/C [33] was 36.8%. For the same molecule, the viability, T/C [34] was 27.6%, the viability, T/C [35] was 17.3% and the viability, T/C [36] was 16%.
